Assay results published in patent US5559096A, “Pharmaceutical compositions against gastric disorders” (Applied Microbiology, Inc., priority 1991, dated 1996).
Positions of bridges follow the written chain, without caps; N, C: chain ends. Non-standard residues stand in square brackets, D forms with d. Primed or numbered codes have the meaning given here. No end group written: not given here. Dhb′ = not defined here; Abu = CC[C@H](N)C(=O)O; Dha = C=C(N)C(=O)O

Tests used:
H.pylori NCTC 11637 = assay: MIC by spiral plater, H.pylori NCTC 11637; type: cell-based, Helicobacter pylori; conditions: H.pylori NCTC 11637, human strain
Description: (§1) The Minimum Inhibitory Concentration (MIC) of bacteriocin antimicrobial agents against a human strains of H.pylori (H.pylori NCTC 11916 and NCTC 11637) were assessed using a spiral plater and automatic agar plate pourer, according to the method of Wallace A. S. and Corkill J. E. (J. Microbial. Methods, 10, 303-310, 1989). MIC values were calculated according to the equation for the Archimedes spiral.

Helicobacter pylori [1] = assay: Kill time assay: effect of citrate on antimicrobial activity (microbe survival); type: cell-based; conditions: Citrate 10 mM; for Mean Counts CFU/ml 1 min: 1 min after inoculation; for Mean Counts CFU/ml 5 min: 5 min after inoculation; for Mean Counts CFU/ml 30 min: 30 min after inoculation
Description: A kill time assay was carried out to determine the effect of citrate on antimicrobial activity. Microbe survival was assessed after treatment with bacteriocin alone and bacteriocin plus citrate. The effect of citrate alone was also measured. Survival was measured at 1,5 and 30 minutes after inoculation. Activity is expressed as the mean number of counts of colony forming units (CFU) per ml.

H.pylori NCTC 11916 = assay: MIC by spiral plater, H.pylori NCTC 11916; type: cell-based, Helicobacter pylori; conditions: H.pylori NCTC 11916, human strain
Description: as §1

Helicobacter pylori [2] = assay: Kill time at 4 times the average MIC; type: cell-based; conditions: time taken to reduce microbe levels to <200 viable organisms; drug concentration 4 times the average MIC
Description: Kill time was calculated as the time taken to reduce microbe levels to <200 viable organisms using a drug concentration equal to 4 times the average MIC value for the test compound.

[3] = Initial Inoculum 8.92 × 10^4, Ambicin N 300 ppm

Row | Compound | MIC Value NCTC 11637 (H.pylori NCTC 11637) [µg/mL] | Mean Counts CFU/ml 1 min (Helicobacter pylori [1]; [3]) | Mean Counts CFU/ml 5 min (Helicobacter pylori [1]; [3]) | Mean Counts CFU/ml 30 min (Helicobacter pylori [1]; [3]) | MIC Value NCTC 11916 (H.pylori NCTC 11916) [µg/mL] | Kill Time (Helicobacter pylori [2]) | Mean Counts CFU/ml 1 min (Helicobacter pylori [1]; Initial Inoculum 2.39 × 10^5) | Mean Counts CFU/ml 5 min (Helicobacter pylori [1]; Initial Inoculum 2.39 × 10^5) | Mean Counts CFU/ml 30 min (Helicobacter pylori [1]; Initial Inoculum 2.39 × 10^5)
1 | Ambicin N: purified form of nisin made available by Applied Microbiology Inc. under the trade name AMBICIN N (I[Dhb′]AI[Dha]LC[Abu]PGCK[Abu]GALMGCNMK[Abu]A[Abu]CHCSIHV[Dha]K; thioether 8-11, 13-19, 23-26, 25-28, 3-7; UniProt P13068 24-57, looked up) | 50 to 300 | 6.31 × 10^4 CFU/ml | 5.71 × 10^4 CFU/ml | 4.72 × 10^4 CFU/ml | 50 to 300 | > 30 |  |  | 
2 | Gramicidin | 1.0 to 3.5 |  |  |  | 0.5 to 3.0 | > 30 | 7.69 × 10^3 CFU/ml | 1.44 × 10^4 CFU/ml | 1.35 × 10^4 CFU/ml
3 | CC(C)C[C@@H]1NC(=O)[C@H](CCCN)NC(=O)[C@H](C(C)C)NC(=O)[C@H](Cc2ccc(O)cc2)N[C@@H](CCC(=O)O)C(=O)N[C@@H](CC(N)=O)C(=O)[C@@H](Cc2ccccc2)NC(=O)[C@H](Cc2ccccc2)NC(=O)[C@@H]2CCCN2C(=O)[C@@H](Cc2ccccc2)NC1=O [Tyrothricin] | 1.0 to 5.0 |  |  |  | 1.0 to 4.0 | < 1 | 2.55 × 10^4 CFU/ml | 1.77 × 10^4 CFU/ml | 1.78 × 10^4 CFU/ml
4 | O=C(O)CC(O)(CC(=O)O)C(=O)O [Citrate] |  | 7.98 × 10^4 CFU/ml | 8.64 × 10^4 CFU/ml | 6.92 × 10^4 CFU/ml |  |  | 1.59 × 10^4 CFU/ml | 1.42 × 10^4 CFU/ml | 1.95 × 10^4 CFU/ml
